Results from patent US4216128A, “Enkephalin analogues” (American Home Products Corporation, priority 1979, dated 1980).
Non-standard residues stand in square brackets, D forms with d. Residues, ends and D or L forms follow the SMILES beside them.

How the values were obtained:
[1] = intravenous administration; cited from earlier work
[2] = intracerebroventricular; cited from earlier work
[3] = Coy et al.; cited from earlier work
[4] = tested on: CF-1 mice; test: phenylbenzoquinone induced writhing test (analgesia); format: in vivo
[5] = tested on: opiate receptor; test: relative displacement potency, procedure of Chang et al.; format: binding; details: relative to morphine
[6] = tested on: rats; details: injection in the brain ventricle, fully reversible by naloxone; cited from earlier work
[7] = tested on: opiate receptor; details: brain homogenates; cited from earlier work
[8] = tested on: mouse vas deferens; details: cited from earlier work
[9] = tested on: guinea pig ileum; details: cited from earlier work
[10] = peripheral administration; cited from earlier work

CSCC[C@@H](NC(=O)[C@@H](N)Cc1ccc(O)cc1)C(=O)NCC(=O)N[C@@H](Cc1ccccc1)C(=O)N1CCC[C@H]1C(N)=O [Tyr-D-Met-Gly-Phe-Pro-NH2] (H-Y[dM]GFP-NH2)
antinociceptive potency relative to morphine [1]: 5.5 times more potent than morphine

Tyr-D-Ala-Gly-Phe-D-Leu
activity when administered intracerebroventricularly [2]: activity

D-Met^5 enkephalin
activity relative to Met enkephalin [3]: one tenth

CN[C@@H](Cc1ccc(O)cc1)C(=O)N[C@H](CS)C(=O)NCC(=O)N(C)[C@@H](Cc1ccccc1)C(=O)N[C@H](CC(N)=O)C(N)=O [Example 4, N-Methyl-L-tyrosyl-D-cysteinyl-glycyl-N-methyl-L-phenylalanyl-D-asparagine amide]
percent analgesia after oral administration ([4]; oral dose of 50 mg/kg, 30 minutes): 10%
ED50 (analgesia, absence of writhing) ([4]; subcutaneous administration, at 15 minutes, mice): 0.64 (0.29-1.4) mg/kg
relative displacement potency [5]: two

CC(C)C[C@H](NC(=O)[C@H](Cc1ccccc1)NC(=O)CNC(=O)CNC(=O)[C@@H](N)Cc1ccc(O)cc1)C(=O)O [leucine-enkephalin, H-Tyr-Gly-Gly-Phe-Leu-OH]
analgesia [6]: profound analgesia

CSCC[C@H](NC(=O)[C@H](Cc1ccccc1)NC(=O)CNC(=O)CNC(=O)[C@@H](N)Cc1ccc(O)cc1)C(=O)O [methionine-enkephalin, H-Tyr-Gly-Gly-Phe-Met-OH]
inhibition of stereospecific receptor binding of 3H-naloxone [7]: inhibit
block of electrically evoked contractions [8]: block electrically evoked contractions
analgesia [6]: profound analgesia
block of electrically evoked contractions [9]: block electrically evoked contractions

CSCC[C@H](NC(=O)[C@H](Cc1ccccc1)NC(=O)CNC(=O)[C@@H](C)NC(=O)[C@@H](N)Cc1ccc(O)cc1)C(N)=O [Tyr-D-Ala-Gly-Phe-Met-amide]
activity when administered peripherally [10]: inactive
